# Where two headings read alike, the source gives them in different places.
# Columns and labels:
# H3 = H3 (UniProt Q9Y5N1); assay: Histamine H3 receptor binding (NIMH PDSP); details: H3 receptor subtype
# Procedure: The compounds from the above Examples were tested for activity vs. histamine receptor subtypes (i.e., H1, H2, H3), at an initial concentration of 10 μM. Binding activity measurement was performed by the NIMH Psychoactive Drug Screening Program (PDSP) at the University of North Carolina Chapel Hill, N.C. The procedures employed by the PDSP are described in the NIMH PDSP Assay Protocol Book Version II (see, http://pdsp.med.unc.edu/PDSP %20Protocols %2011%202013-03-28.pdf). Data (e.g., H3antagonist activity) may also be generated using a commercially available kit from Invitrogen/Thermo Fisher Scientific Inc. (Tango™ H3-bla U2OS DA Assay Kit). Data for serotonin reuptake activity (SERT, % inhibition at 10 μM drug concentration; calculated Ki) were also generated by PDSP.
# SERT = SERT (Homo sapiens, UniProt P31645); assay: Serotonin reuptake activity (SERT), PDSP; assay type: binding; details: for inhibition at 10 µM: 10 μM drug concentration; for Ki: calculated Ki
# SERT, sequence (P31645 whole entry, species assumed): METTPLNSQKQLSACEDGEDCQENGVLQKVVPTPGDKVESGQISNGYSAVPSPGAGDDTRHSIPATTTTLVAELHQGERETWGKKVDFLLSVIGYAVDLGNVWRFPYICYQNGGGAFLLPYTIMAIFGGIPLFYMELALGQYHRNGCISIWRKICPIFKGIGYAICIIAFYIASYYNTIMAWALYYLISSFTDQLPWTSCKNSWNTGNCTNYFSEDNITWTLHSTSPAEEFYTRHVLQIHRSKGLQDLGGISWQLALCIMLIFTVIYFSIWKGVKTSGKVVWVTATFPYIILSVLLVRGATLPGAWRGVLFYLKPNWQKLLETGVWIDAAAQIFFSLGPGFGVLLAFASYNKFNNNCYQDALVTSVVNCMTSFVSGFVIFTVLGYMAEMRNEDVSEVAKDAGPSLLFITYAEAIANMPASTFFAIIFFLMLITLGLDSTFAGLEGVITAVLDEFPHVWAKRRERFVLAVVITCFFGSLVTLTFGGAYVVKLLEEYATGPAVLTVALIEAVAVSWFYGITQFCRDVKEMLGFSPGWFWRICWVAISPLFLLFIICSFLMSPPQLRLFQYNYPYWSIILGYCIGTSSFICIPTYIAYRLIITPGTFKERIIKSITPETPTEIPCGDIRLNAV
# H1 = H1 (Homo sapiens, UniProt P35367); assay: Histamine H1 receptor binding (NIMH PDSP); details: for inhibition at 10 µM: read-out: Inhibition (% at 10 μM)
# H1, sequence (P35367 whole entry): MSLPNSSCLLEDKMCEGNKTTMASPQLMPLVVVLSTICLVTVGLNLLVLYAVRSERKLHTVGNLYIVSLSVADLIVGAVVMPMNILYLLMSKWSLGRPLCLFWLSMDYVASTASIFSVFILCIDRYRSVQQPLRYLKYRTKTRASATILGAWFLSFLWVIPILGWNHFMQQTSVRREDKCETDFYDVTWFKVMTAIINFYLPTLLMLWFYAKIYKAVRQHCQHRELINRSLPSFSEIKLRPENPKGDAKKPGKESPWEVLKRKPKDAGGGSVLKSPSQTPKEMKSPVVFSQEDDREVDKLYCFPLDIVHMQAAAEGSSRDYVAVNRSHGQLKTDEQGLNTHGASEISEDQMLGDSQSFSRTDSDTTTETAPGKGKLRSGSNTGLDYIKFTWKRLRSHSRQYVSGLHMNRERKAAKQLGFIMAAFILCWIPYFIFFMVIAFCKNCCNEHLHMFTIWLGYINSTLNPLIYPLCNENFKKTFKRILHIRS
# Procedure: The compounds from the above Examples were tested for activity vs. histamine receptor subtypes (i.e., H1, H2, H3), at an initial concentration of 10 μM. Binding activity measurement was performed by the NIMH Psychoactive Drug Screening Program (PDSP) at the University of North Carolina Chapel Hill, N.C. […] Data (e.g., H3antagonist activity) may also be generated using a commercially available kit from Invitrogen/Thermo Fisher Scientific Inc. (Tango™ H3-bla U2OS DA Assay Kit).
"inhibition at 10 µM (H1; H1 receptor subtype, 10 μM)","Ki (H1; H1 receptor subtype, read-out: Ki)",Structure (SMILES),Ki (H3),Inhibition (% at 10 μM) (H3),inhibition at 10 µM (SERT),Ki (SERT),Ki (H1),inhibition at 10 µM (H1)
,,CN(C)CCCC1(c2ccc(F)cc2)OCc2cc(CN3CCCCC3)ccc21 (stereo not drawn) [Example 1],20 nM,99.6%,98.8%,29 nM,101 nM,89.9%
89.8%,144 nM,"CN(C)CCCC1(c2ccc(F)cc2)OCc2cc(CN3CCN(C)CC3)ccc21 (stereo not drawn) [Example 2, 3-[5-((4-methylpiperazin-1-yl)methyl)-1-(4-fluorophenyl)-1,3-dihydro-2-benzofuran-1-yl]-N,N-dimethylpropan-1-amine]",155 nM,89.8%,99.3%,31 nM,,

# Reference: patent US20160237052A1, “Histamine-3 Receptor Antagonists” (MediSynergics, LLC, priority 2015, published 2016)
